Data: patent US20240415801A1, “Methods and Compositions for Treating Fibroids” (Lundquist Institute for Biomedical Innovation at …, priority 2023, published 2024)

Key:
fibroid xenografts [1] = assay: Total collagen enzyme-linked immunosorbent assay of xenografts (Example 1); assay type: in vivo, SCID/Beige mice; conditions: 20 mg/kg daily, 8 weeks, vs controls
Procedure: The total collagen content in xenografts was assessed in duplicate using the QuickZyme Total Collagen Assay Kit (QuickZyme Biosciences, Leiden, Netherlands), following the manufacturer's instructions as previously described. Absorbance readings were taken spectrophotometrically at a wavelength of 570 nm, and concentrations were determined by comparing sample optical density values to a standard curve. Total collagen levels were quantified as μg/ml of protein and reported as fold change relative to the vehicle group.

[2] = Safety test, plasma chemistry panel (Example 2); assay type: in vivo, SCID/Beige mice; conditions: 5 mg/kg i.p.
Procedure: In order to determine if Bay 11-7082 administration was safe, the plasma collected from the mice was tested after 8 weeks of treatment with vehicle or Bay 11-7082. The plasma (100 μL) was pipetted into the Comprehensive Diagnostic Profile Rotor (#500-1038, Abaxis, Union City, CA, USA) and the values of glucose, creatinine, BUN, phosphorus, sodium, albumin, alkaline phosphatase, serum glutamic pyruvic transaminase (SGPT; ALT), total protein, globulin, total bilirubin and amylase were analyzed using VetScan VS2 chemistry analyzer (Abaxis, Union City, CA, USA).

fibroid xenografts [3] = assay: Xenograft mouse fibroid model, tumor weight (Example 2); assay type: in vivo, ovariectomized CB-17 SCID/Beige mice; conditions: 5 mg/kg i.p. (every other day / three times per week), two months, vs matched controls
Text: Portions of uterine fibroids (intramural, 2-5 cm in diameters) (n=13) were obtained from patients at Harbor-UCLA Medical Center. Prior approval from the Institutional Review Board (18CR-31752-01 R) at the Lundquist Institute was obtained. Informed consent was obtained from all the patients participating in the study who were not taking any hormonal medications for at least 3 months prior to surgery. The fibroids used in this study were from African Americans (n=3), Hispanics (n=9) and Asians (n=1) women aged 35-57 years (mean 46±6.5 years). The MED12 mutation status of all fibroids was determined by PCR amplification and Sanger sequencing (Laragen Inc. Culver City, CA). […] The missense mutations in exon 2 included c.130G>A (p.Gly44Ser) (n=4), c.131 G>A (p.Gly44Asp) (n=2) and c.131 G>T (p.Gly44Val) (n=1). The tissues were snap frozen and stored in liquid nitrogen for further analysis as previously described (2, 3).
Portions of liver, kidney, heart were dissected and frozen.

**Q.** With `Cc1ccc(S(=O)(=O)/C=C/C#N)cc1` [Bay 11-7082] as the compound, how does the “total collagen protein levels” value (fibroid xenografts [1]) read?
**A.** significant decrease

**Q.** What about the “adverse effects in blood plasma chemistry panel (glucose, kidney function, electrolytes, liver function, pancreatic amylase)” value ([2]; 8 weeks) of the same compound?
**A.** no adverse effects

**Q.** What about the “Albumin (mean ± SEM)” value ([2]; plasma after 8 weeks) of the same compound?
**A.** 3.5 ± 0.14 g/dL

**Q.** What about the “Alkaline phosphatase (mean ± SEM)” value ([2]; plasma after 8 weeks) of the same compound?
**A.** 91.9 ± 20.05 U/l

**Q.** And the “Amylase (mean ± SEM)” value ([2]; plasma after 8 weeks)?
**A.** 643.0 ± 36.82 U/l

**Q.** And the “BUN (mean ± SEM)” value ([2]; plasma after 8 weeks)?
**A.** 27.1 ± 5.75 mg/dL

**Q.** And the “Creatinine (mean ± SEM)” value ([2]; plasma after 8 weeks)?
**A.** 0.4 ± 0.03 mg/dL

**Q.** What about the “Globulin (mean ± SEM)” value ([2]; plasma after 8 weeks) of the same compound?
**A.** 1.1 ± 0.24 g/dL

**Q.** What about the “Glucose (mean ± SEM)” value ([2]; plasma after 8 weeks) of the same compound?
**A.** 261.0 ± 14.63 mg/dL

**Q.** And the “Phosphorus (mean ± SEM)” value ([2]; plasma after 8 weeks)?
**A.** 10.1 ± 0.53 mg/dL

**Q.** What about the “SGPT (ALT) (mean ± SEM)” value ([2]; plasma after 8 weeks) of the same compound?
**A.** 54.5 ± 8.71 U/l

**Q.** And the “Sodium (mean ± SEM)” value ([2]; plasma after 8 weeks)?
**A.** 155.3 ± 1.35 mEq/l

**Q.** And the “Total bilirubin (mean ± SEM)” value ([2]; plasma after 8 weeks)?
**A.** 0.3 ± 0.04 mg/dL

**Q.** And the “Total protein (mean ± SEM)” value ([2]; plasma after 8 weeks)?
**A.** 4.6 ± 0.16 g/dL

**Q.** What about the “reduction in tumor weight” value (fibroid xenografts [3]) of the same compound?
**A.** 40%
